Experimental findings from publication PMC8945599, “VEGFA, B, C: Implications of the C-Terminal Sequence Variations for the Interaction with Neuropilins” (Biomolecules, 2022) are described below.

Experiment [1] has as its target T1, NRP1-b1 (b1 domain of Neuropilin-1) (Homo sapiens, UniProt O14786).
T1 construct: 6-His-tag with TEV protease cleavage site (N); made in house; host or cells: Rosetta-gami2(DE3)pLysS E. coli
T1 sequence (O14786 275-424 limits assumed): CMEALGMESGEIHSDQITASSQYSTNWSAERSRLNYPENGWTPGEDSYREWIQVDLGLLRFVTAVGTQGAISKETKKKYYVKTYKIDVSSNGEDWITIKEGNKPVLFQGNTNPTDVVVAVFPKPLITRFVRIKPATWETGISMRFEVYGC
Nature of the experiment: Surface plasmon resonance, peptide binding to immobilised NRP1-b1. The following applies: SPR, Biacore T200, protein immobilised on CM5 chip (1000 RU), peptide 64 µM to 0.125 µM, 20 mM Tris pH 7.9, 50 mM NaCl. The source says:
(§1) Proteins were expressed and purified as previously described. NRP1-b1 and NRP2-b1 were expressed in Rosetta-gami2(DE3)pLysS E.coli cells that were transformed with a pET-15b vector containing NRP1-b1 and NRP2-b1 sequences with an N-terminal 6-His-tag and a TEV protease cleavage site. After the cells were harvested by centrifugation and lysed by sonication, the proteins were purified from the filtered cell extract. Purification protocol, as described in Tsai et al. (2016), included a combination of nickel ion-affinity chromatography, size exclusion, and a final ion exchange chromatography step.
(§2) SPR was performed using the Biacore T200 Enhanced Sensitivity model (GE, Healthcare, UK). Protein was immobilised on a CM5 chip, following the manufacturer’s instructions until it reached 1000 response units (RU). SPR was run with a range of peptide concentrations from 64 µM to 0.125 µM, in a buffer of 20 mM Tris pH 7.9, 50 mM NaCl. Biacore T200 evaluation software was used for data analysis.
(In general: Surface plasmon resonance follows binding to a sensor surface in real time, without labels.)

Experiment [2] deals with T2, NRP2-b1 (b1 domain of Neuropilin-2) (Homo sapiens, UniProt O60462).
T2 construct: 6-His-tag with TEV protease cleavage site (N); made in house; host or cells: Rosetta-gami2(DE3)pLysS E. coli
T2 sequence (O60462 277-427 limits assumed): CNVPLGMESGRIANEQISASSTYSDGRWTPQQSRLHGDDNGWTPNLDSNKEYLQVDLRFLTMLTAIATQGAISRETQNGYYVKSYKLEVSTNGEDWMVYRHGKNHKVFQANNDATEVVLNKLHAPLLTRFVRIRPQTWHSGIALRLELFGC
Put plainly: Surface plasmon resonance, peptide binding to immobilised NRP2-b1. The following applies: SPR, Biacore T200, protein immobilised on CM5 chip (1000 RU), peptide 64 µM to 0.125 µM, 20 mM Tris pH 7.9, 50 mM NaCl.
Excerpt: as §1, §2

The target in experiment [3] is T3, NRP1-b1 (Homo sapiens, UniProt O14786).
T3 construct: 6-His-tag with TEV protease cleavage site (N); made in house; host or cells: Rosetta-gami2(DE3)pLysS E. coli
T3 sequence (O14786 275-424 limits assumed): T1 sequence (O14786 275-424 limits assumed)
Nature of the experiment: Thermostability shift assay, NRP1-b1. It counts as binding. The note with it: 5 µM protein, 1 mM ligand, 10X SYPRO Orange, LightCycler 480 II; average of four measurements. The protocol:
Thermostability assays were performed on the LightCycler 480 II (Roche) with a final concentration of 5 µM protein, 1 mM ligand and 10X of SYPRO Orange, in DMSO (Thermo Fisher). Negative and positive control experiments were performed using the protein with buffer alone or the ligand without protein and the protein with a strongly binding ligand EG01377, respectively. Experiments were carried out in duplicates on two separate days for two different batches of protein preparations and the values in the table represent the averages from the four measurements.

Where no end group is shown, it is not given here.

What is called Kd is the concentration at which binding is half-saturated. On to Ac-AAAAR [Con, reference compound], for which the dissociation constant Kd in experiment [1] came out at 33.1 µM; in experiment [2] it was 92.2 µM. In experiment [3], the “shift in Tm (ΔTm) of NRP1-b1” value was determined as 3.0 ± 0.2 °C.
The matching figures for Ac-DKPRR [A165]: 7.87 µM, 30.9 µM and 3.5 ± 0.2 °C.
Ac-RKLRR [B167]: the dissociation constant Kd stood at 4.12 µM in experiment [1] and 13 µM in experiment [2].
Regarding Ac-RPQPR [B186], the results for the dissociation constant Kd in experiment [1] and in experiment [2] were 10 µM and 24.8 µM, respectively. The “shift in Tm (ΔTm) of NRP1-b1” value in experiment [3] was 3.6 ± 0.2 °C.
As for Ac-SIIRR [C], the Kd in experiment [1] came out at 33.2 µM; in experiment [2], 27.1 µM. The “shift in Tm (ΔTm) of NRP1-b1” value in experiment [3] was found to be 2.0 ± 0.3 °C.
